“And” between values parts separate entries of the source, which are not always exact repeats. Equal entries are not always repeated. Where two headings read alike, the source gives them in different places.
What was measured:
[1] = target: T1, mu opioid receptor (CHO-hMOR cell membranes) (Homo sapiens, UniProt P35372); assay: Mu Opioid Receptor Functional Assay: [35S]GTPγS Binding in CHO-hMOR Cell Membranes, Versions 1 and 2; assay type: biochemical; conditions: for MOR GTP binding assay_v2 (% I): version 2, % inhibition of agonist-stimulated GTPγS binding; for EC50: version 2, read-out: MOR GTP binding assay v2 EC50; for MOR GTP binding assay_v1 (% I): version 1, % inhibition of agonist-stimulated GTPγS binding; for MOR GTP assay_v1 % of Basal: version 1, basal binding = 100%
T1 construct: purchased Receptor Biology, Inc. (Baltimore, Md.); host or cells: CHO cells (recombinant expression)
Procedure, shortened: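 Agonist-stimulated [35S]GTPγS (0.5 nM) binding measured by SPA in human MOR CHO membranes, buffer pH 7.6 with 100 mM NaCl, 5 mM MgCl2. Antagonist mode: % inhibition of stimulation by 1 μM SNC80; agonist mode: EC50 fitted. Basal binding without agonist, non-specific with 10 μM cold GTPγS.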

delta opioid receptor = target: T2, delta opioid receptor (Rattus norvegicus, UniProt P33533); assay: Rat Brain Delta Opioid Receptor Binding Assay ([3H]DPDPE); conditions: rat forebrain membranes, margin of error 10-20%
T2 construct: from tissue; host or cells: forebrain of male Wistar rats
Procedure, shortened: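 Rat (male Wistar) forebrain membranes in 50 mM Tris-HCl pH 7.4 with 5 mM MgCl2, incubated with ~4 nM [3H]DPDPE for 2.5 h at 25 °C. Bound ligand collected by filtration and scintillation counting. Single-concentration data given as % inhibition of specific binding; concentration series fitted to Ki.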

human mu opioid receptor = target: T3, human mu opioid receptor (Homo sapiens, UniProt P35372); assay: Human Mu Opioid Receptor Binding Assay (CHO membranes, 3H-Damgo)
T3 construct: purchased Perkin Elmer RBHOMM400UA; host or cells: Chinese Hamster Ovary cells (recombinant expression)
Procedure, shortened: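 Radioligand displacement of ³H-Damgo (diluted to 3.6 nM pre-mix) from recombinant human mu receptor in CHO membranes, 2 h, room temperature, 50 mM Tris pH 7.5 with 5 mM MgCl2. Bound label read by filtration and scintillation counting; 1 μM unlabelled Damgo defines nonspecific binding.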

T2 sequence (P33533 whole entry): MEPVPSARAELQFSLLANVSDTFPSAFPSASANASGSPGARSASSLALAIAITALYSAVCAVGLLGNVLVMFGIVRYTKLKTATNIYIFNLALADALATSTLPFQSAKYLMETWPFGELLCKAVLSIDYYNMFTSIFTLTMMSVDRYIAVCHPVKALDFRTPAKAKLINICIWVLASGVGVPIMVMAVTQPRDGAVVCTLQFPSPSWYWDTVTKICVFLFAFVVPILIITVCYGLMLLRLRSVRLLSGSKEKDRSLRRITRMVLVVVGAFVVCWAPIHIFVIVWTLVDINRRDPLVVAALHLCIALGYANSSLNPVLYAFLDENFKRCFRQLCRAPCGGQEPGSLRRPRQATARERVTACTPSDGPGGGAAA
T3 sequence (P35372 whole entry): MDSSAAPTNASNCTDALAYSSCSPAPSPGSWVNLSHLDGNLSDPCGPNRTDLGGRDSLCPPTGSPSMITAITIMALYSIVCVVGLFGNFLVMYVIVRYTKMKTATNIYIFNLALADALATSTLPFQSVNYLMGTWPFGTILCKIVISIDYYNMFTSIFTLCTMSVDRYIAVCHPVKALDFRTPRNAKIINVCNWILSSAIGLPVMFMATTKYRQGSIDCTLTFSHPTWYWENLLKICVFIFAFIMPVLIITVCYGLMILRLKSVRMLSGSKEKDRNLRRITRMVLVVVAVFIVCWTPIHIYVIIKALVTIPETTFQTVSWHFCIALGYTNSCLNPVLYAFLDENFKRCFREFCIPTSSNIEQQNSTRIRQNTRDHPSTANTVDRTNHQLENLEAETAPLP
T1 sequence (P35372 whole entry): as above

Row | SMILES | MOR GTP binding assay_v2 (% I) [1] [%] | EC50 [1] [nM] | Ki (delta opioid receptor; read-out: r Ki δ) | Ki (human mu opioid receptor; read-out: hKi μ) | MOR GTP binding assay_v1 (% I) [1] [%] | MOR GTP assay_v1 % of Basal [1] [%] | Ki (delta opioid receptor; r Ki δ) [nM] | Ki (human mu opioid receptor; hKi μ) [nM]
1 | Cc1cc(C(N)=O)cc(C)c1C[C@H](N)C(=O)N(Cc1cccc(C(=O)O)c1)[C@@H](C)c1nc(-c2ccccc2)c[nH]1 [Cpd 227] | 36.00 | 60.8 | 0.08 nM and 0.46 nM | 1.92 nM |  |  |  | 
2 | C[C@H](c1nc(-c2ccccc2)c[nH]1)N(C)C(=O)[C@@H](N)Cc1ccc(C(N)=O)cc1 [Cpd 203] |  |  | 49.3 nM | 13.7 nM | 20.00 | 331.00 |  | 
3 | Cc1cc(C(N)=O)cc(C)c1C[C@H](N)C(=O)N(Cc1ccc(C(=O)O)o1)[C@@H](C)c1nc(-c2ccccc2)c[nH]1 [Cpd 256] | 29.40 | 13 | 3.82 nM | 2 nM |  |  |  | 
4 | Cc1cc(O)cc(C)c1C[C@H](N)C(=O)N(Cc1nc(-c2ccccc2)c[nH]1)C1CCCCC1 [Cpd 190] |  |  | 13.8 nM |  | 70.00 |  |  | 
5 | COc1ccc(CN(Cc2nc(-c3ccccc3)c[nH]2)C(=O)[C@@H](N)Cc2ccc(C(N)=O)cc2)cc1C(=O)O [Cpd 5] | 7.87 | 71 | 630 nM and 183 nM | 3.9 nM |  |  |  | 
6 | Cc1cc(O)cc(C)c1C[C@H](N)C(=O)N(Cc1nc(-c2ccccc2)c[nH]1)CC1CC1 [Cpd 192] |  |  | 7.64 nM | 0.62 nM | 30.00 | 383.00 |  | 
7 | Cc1cc(O)cc(C)c1C[C@H](N)C(=O)N(C)[C@@H](C)c1nc(Cc2ccccc2)c[nH]1 [Cpd 205] |  |  | 4.44 nM |  | 1.00 | 566.00 |  | 
8 | Cc1cc(O)cc(C)c1C[C@H](N)C(=O)N(Cc1nc(-c2ccc(F)cc2)c(C)[nH]1)C(C)C [Cpd 163] |  |  | 4.51 nM | 0.67 nM | 1.00 |  |  | 
9 | COc1ccc(CN(C(=O)[C@@H](N)Cc2ccc(C(N)=O)cc2)[C@@H](C)c2nc(-c3ccccc3)c[nH]2)cc1C(=O)O [Cpd 4] |  |  | 11 nM and 17 nM | 5.5 nM |  |  |  | 
10 | Cc1cc(O)cc(C)c1C[C@H](N)C(=O)N(Cc1cccc(C(=O)O)c1)[C@@H](C)c1nc(-c2ccccc2)c[nH]1 [Cpd 48] | 24.53 | 2.2 |  | 0.4 nM |  |  |  | 
11 | COc1ccc(CN(C(=O)[C@@H](N)Cc2ccc(O)cc2)[C@@H](C)c2nc(-c3ccccc3)c[nH]2)cc1C(=O)O [Cpd 261] | 5.88 | 17 | 8.01 nM | 2.58 nM and 1.3 nM |  |  |  | 
12 | COC(=O)c1ccc(CN(C(=O)[C@@H](N)Cc2ccc(C(N)=O)cc2)[C@@H](C)c2nc(-c3ccccc3)c[nH]2)o1 [Cpd 303] | 1.00 | 30 |  | 3.8 nM |  |  |  | 
13 | Cc1ccccc1-c1nc(CN(C(=O)[C@@H](N)Cc2c(C)cc(O)cc2C)C(C)C)[nH]c1C [Cpd 165] |  |  | 23.6 nM | 0.45 nM | 1.00 |  |  | 
14 | Cc1cc(C(N)=O)cc(C)c1C[C@H](N)C(=O)N(Cc1ccccc1)[C@@H](C)c1nc(-c2ccccc2)c[nH]1 [Cpd 114] |  |  | 12 nM | 1.39 nM | 13.20 | 717.59 |  | 
15 | COc1ccc(CN(C(=O)[C@@H](N)Cc2c(C)cc(C(N)=O)cc2C)[C@@H](C)c2nc(-c3ccc(I)cc3)c[nH]2)cc1C(=O)O [Cpd 289] |  |  |  | 2.2 nM |  |  |  | 
16 | COC(=O)c1ccc(CN(C(=O)[C@@H](N)Cc2c(C)cc(C(N)=O)cc2C)[C@@H](C)c2nc(-c3ccccc3)c[nH]2)o1 [Cpd 257] | 10.96 | 3.9 |  | 3.4 nM |  |  |  | 
17 | Cc1cc(O)cc(C)c1C[C@H](N)C(=O)N(C)Cc1nc(-c2ccccc2)c[nH]1 [Cpd 199] |  |  | 26.3 nM | 0.29 nM | 11.00 | 465.00 |  | 
18 | Cc1cc(O)cc(C)c1C[C@H](N)C(=O)N(C)[C@H](C)c1nc(-c2ccccc2)c[nH]1 [Cpd 206] |  |  | 5.8 nM |  | 1.00 | 446.00 |  | 
19 | CCN(C(=O)[C@@H](N)Cc1ccc(O)cc1)[C@H](C)c1nc(-c2ccccc2)c[nH]1 [Cpd 214] |  |  | 308 nM | 29 nM | 3.00 | 295.00 |  | 
20 | COc1ccc(CN(C(=O)[C@@H](N)Cc2c(C)cc(C(N)=O)cc2C)[C@@H](C)c2nc(-c3ccccc3)c[nH]2)cc1C(=O)O [Cpd 18] | 7.54 | 1 |  |  |  |  | 0.38 to 14.4 | 1.7

Row | SMILES | MOR GTP binding assay_v2 (% I) [1] [%] | EC50 [1] [nM] | Ki (delta opioid receptor; read-out: r Ki δ) | Ki (human mu opioid receptor; read-out: hKi μ) | MOR GTP binding assay_v1 (% I) [1] [%] | MOR GTP assay_v1 % of Basal [1] [%] | Ki (delta opioid receptor; r Ki δ) [nM] | Ki (human mu opioid receptor; hKi μ) [nM]
21 | C[C@H](c1nc(-c2ccccc2)c[nH]1)N(Cc1ccccc1)C(=O)[C@@H](N)Cc1ccc(O)cc1 [Cpd 221] |  |  | 9.58 nM | 0.42 nM | 13.00 | 427.00 |  | 
22 | CC(C)N(C(=O)[C@@H](N)Cc1ccc(O)cc1)[C@@H](C)c1nc(-c2ccccc2)c[nH]1 [Cpd 225] |  |  | 112 nM | 1.4 nM | 1.00 | 657.00 |  | 
23 | CC(C)N(Cc1nc(-c2ccccc2)c[nH]1)C(=O)[C@@H](N)Cc1ccc(O)cc1 [Cpd 195] |  |  | 306 nM | 9.8 nM | 34.00 | 378.00 |  | 
24 | CCN(C(=O)[C@@H](N)Cc1c(C)cc(O)cc1C)[C@H](C)c1nc(-c2ccccc2)c[nH]1 [Cpd 217] |  |  | 5.4 nM |  | 1.00 | 599.00 |  | 
25 | CCN(C(=O)[C@@H](N)Cc1c(C)cc(O)cc1C)[C@@H](C)c1nc(-c2ccccc2)c[nH]1 [Cpd 216] |  |  | 1.14 nM |  | 1.00 | 666.00 |  | 
26 | Cc1cc(O)cc(C)c1C[C@H](N)C(=O)N(Cc1nc(-c2cc(C(F)(F)F)cc(C(F)(F)F)c2)c(C)[nH]1)C(C)C [Cpd 164] |  |  | 120 nM | 16.3 nM | 1.00 |  |  | 
27 | CCN(C(=O)[C@@H](N)Cc1ccc(O)cc1)[C@@H](C)c1nc(-c2ccccc2)c[nH]1 [Cpd 215] |  |  | 126 nM | 1.5 nM | 1.00 | 606.00 |  | 
28 | Cc1cc(C(N)=O)cc(C)c1C[C@H](N)C(=O)N(Cc1cccc(-c2nnn[nH]2)c1)[C@@H](C)c1nc(-c2ccccc2)c[nH]1 [Cpd 242] |  |  | 0.18 nM | 2.35 nM |  |  |  | 
29 | C[C@@H](c1nc(-c2ccccc2)c[nH]1)N(Cc1ccccc1)C(=O)[C@@H](N)Cc1ccc(O)cc1 [Cpd 219] |  |  | 87.8 nM | 16.2 nM | 1.00 | 611.00 |  | 
30 | Cc1cc(O)cc(C)c1C[C@H](N)C(=O)N(Cc1nc(-c2ccccc2)c[nH]1)C(C)C [Cpd 194] |  |  | 14.8 nM | 0.13 nM | 1.00 | 558.00 |  | 
31 | COc1ccc(CN(C(=O)[C@@H](N)Cc2c(C)cc(C(N)=O)cc2C)[C@@H](C)c2nc(-c3ccccc3)c[nH]2)cc1-c1nnn[nH]1 [Cpd 8] | 13.95 | 1.2 | 0.43 nM and 0.15 nM | 2.5 nM and 4.4 nM |  |  |  | 
32 | Cc1cc(O)cc(C)c1C[C@H](N)C(=O)N(Cc1ccnc2ccccc12)[C@@H](C)c1nc(-c2ccccc2)c[nH]1 [Cpd 246] | 21.30 | 4.5 | 0.035 nM | 5.63 nM |  |  |  | 
33 | Cc1cc(O)cc(C)c1C[C@H](N)C(=O)N(C)[C@@H](C)c1nc(-c2ccccc2)c[nH]1 [Cpd 207] |  |  | 5.3 nM and 5.37 nM and 14.7 nM |  |  |  |  | 
34 | Cc1cc(O)cc(C)c1C[C@H](N)C(=O)N(Cc1nc(-c2ccccc2)c(C)[nH]1)C(C)C [Cpd 166] |  |  | 5.58 nM and 12 nM | 0.39 nM and 0.5 nM | 1.00 |  |  | 
35 | COc1ccc(CN(C(=O)[C@@H](N)Cc2c(C)cc(C(N)=O)cc2C)[C@@H](C)c2nc(-c3ccccc3)c[nH]2)cc1OC [Cpd 75] |  |  | 0.66 nM | 2.6 nM |  |  |  | 
36 | COc1ccc(CN(C(=O)[C@@H](N)Cc2c(C)cc(O)cc2C)[C@@H](C)c2nc(-c3ccccc3)c[nH]2)cc1C(=O)O [Cpd 260] | 2.89 | 1.5 | 0.13 nM | 0.58 nM |  |  |  | 
37 | Cc1cc(C(N)=O)cc(C)c1C[C@H](N)C(=O)N(Cc1ccc(C(=O)O)cc1)[C@@H](C)c1nc(-c2ccccc2)c[nH]1 [Cpd 50] |  |  | 0.58 nM | 1.4 nM |  |  |  | 
38 | Cc1cc(O)cc(C)c1C[C@H](N)C(=O)N(Cc1ccccc1)[C@@H](C)c1nc(-c2ccccc2)c[nH]1 [Cpd 218] |  |  | 1.45 nM | 3.92 nM | 1.00 | 599.00 |  | 
39 | COC(=O)c1cc(CN(C(=O)[C@@H](N)Cc2c(C)cc(C(N)=O)cc2C)[C@@H](C)c2nc(-c3ccccc3)c[nH]2)ccc1OC [Cpd 17] | 8.71 | 2.5 | 60 nM | 2.2 nM |  |  |  | 

Source: patent US10213415B2, “Compounds as opioid receptor modulators” (JANSSEN PHARMACEUTICA NV, priority 2004, dated 2019)
